Assays:
[1] = Toxicity of 2,4,5-trimethoxyphenylpropane compared with β-asarone
[2] = test system: rats; details: cited from earlier work
[3] = test system: mice fed with a high cholesterol diet; details: oral dose of 80 mg/kg; cited from earlier work
[4] = test system: mice; details: cited from earlier work
[5] = test system: human lymphocytes; details: human lymphocytes in-vitro after metabolic activation; cited from earlier work
[6] = test system: animals; details: cited from earlier work

CCCc1cc(OC)c(OC)cc1OC [2,4,5-trimethoxyphenylpropane, 1-propyl-2,4,5-trimethoxybenzene]
toxicity relative to β-asarone [1]: five times less toxic

C/C=C/c1cc(OC)c(OC)cc1OC [α-asarone, trans-2,4,5-trimethoxyphenyl-1-propene]
toxicity [2]: no toxic effect is observed | decrease of cholesterol [3]: 49.6% | decrease of triglycerides [3]: 83.7% | high density lipoprotein (HDL)-cholesterol [3]: increased | toxicity [4]: no toxic effect is observed

C/C=C\c1cc(OC)c(OC)cc1OC [β-asarone]
chromosome damaging effect [5]: chromosome damaging effect | tumor induction ([6]; after oral administration): induce tumors in the duodenal region | carcinogenicity ([6]; animals): carcinogenic

Source: patent US6590127B1, “Process for the preparation of pharmacologically active α-asarone from toxic β-asarone rich acorus calamus oil” (priority 2002, dated 2003)
